Measurements published in ChEMBL document CHEMBL5500384, “New synergistic benzoquinone scaffolds as inhibitors of mycobacterial cytochrome bc1 complex to treat multi-drug resistant tuberculosis” (Eur J Med Chem, 2024).
Converted amounts (≈) assume the structure as drawn.

Columns and labels:
[1] = Cytotoxicity against african green monkey Vero cells assessed as cell viability at 3.125 ug/ml by MTT assay; type: toxicity, cell-based; conditions: chlorocebus sabaeus, at 3.125 µg/mL, read-out: Activity
[2] = Renal toxicity in Albino mouse assessed as change in Bowman's capsule at 50 to 2000 mg/kg, po measured after 14 days; type: organism-based; conditions: in vivo, 336 h, dose 50-2000 mg/kg, time 14 day
[3] = Pulmonary toxicity in Albino mouse assessed as change in squamous pneumocytes at 50 to 2000 mg/kg, po measured after 14 days; type: organism-based; conditions: in vivo, 336 h, dose 50-2000 mg/kg, time 14 day
[4] = Acute toxicity in Albino mouse assessed as change in serum creatine level at 50 to 2000 mg/kg, po measured after 14 days (reference value: 0.9 mg/dl); type: organism-based; conditions: in vivo, 336 h, dose 50-2000 mg/kg, time 14 day
[5] = Hepatotoxicity in Albino mouse assessed as change in portal tracks at 50 to 2000 mg/kg, po measured after 14 days; type: toxicity, organism-based; conditions: in vivo, 336 h, dose 50-2000 mg/kg, time 14 day
[6] = Acute toxicity in Albino mouse assessed as change in lymphocytes at 50 to 2000 mg/kg, po measured after 14 days (reference value: 21%); type: organism-based; conditions: in vivo, 336 h, dose 50-2000 mg/kg, time 14 day
[7] = Acute toxicity in Albino mouse assessed as mortality at 300 mg/kg, po after 5 to 8 hrs; type: organism-based; conditions: in vivo, time 5-8 hrs
[8] = Acute toxicity in Albino mouse assessed as change in ALP level at 50 to 2000 mg/kg, po measured after 14 days (reference value: 28 IU/L); type: organism-based; conditions: in vivo, 336 h, dose 50-2000 mg/kg, time 14 day
[9] = Hepatotoxicity in Albino mouse assessed as change in hepatic artery at 50 to 2000 mg/kg, po measured after 14 days; type: toxicity, organism-based, Liver; conditions: in vivo, 336 h, dose 50-2000 mg/kg, time 14 day
[10] = Acute toxicity in Albino mouse assessed as change in hemoglobin level at 50 to 2000 mg/kg, po measured after 14 days (reference value: 12.8 g/dl); type: organism-based; conditions: in vivo, 336 h, dose 50-2000 mg/kg, time 14 day
[11] = Cytotoxicity against african green monkey Vero cells assessed as cell viability at 100 ug/ml by MTT assay; type: toxicity, cell-based; conditions: chlorocebus sabaeus, at 100 µg/mL, read-out: Activity
[12] = Acute toxicity in Albino mouse assessed as change in serum urea level at 50 to 2000 mg/kg, po measured after 14 days (reference value: 46 mg/dl); type: organism-based; conditions: in vivo, 336 h, dose 50-2000 mg/kg, time 14 day
[13] = Acute toxicity in Albino mouse assessed as change in total leucocyte count at 50 to 2000 mg/kg, po measured after 14 days (reference value: 7400 mm3); type: organism-based; conditions: in vivo, 336 h, dose 50-2000 mg/kg, time 14 day
[14] = Hepatotoxicity in Albino mouse assessed as change in portal vein at 50 to 2000 mg/kg, po measured after 14 days; type: toxicity, organism-based; conditions: in vivo, 336 h, dose 50-2000 mg/kg, time 14 day
[15] = test system: Mycobacterium tuberculosis; experiment: Antitubercular activity against Mycobacterium tuberculosis H37Rv incubated for 5 days by microtiter plate method; type: functional; conditions: 120 h, time 5 day
[16] = Acute toxicity in po dosed Albino mouse assessed as mortality after 14 days; type: organism-based; conditions: in vivo, time 14 day
[17] = Cytotoxicity against african green monkey Vero cells assessed as cell viability at 50 ug/ml by MTT assay; type: toxicity, cell-based; conditions: chlorocebus sabaeus, at 50 µg/mL, read-out: Activity
[18] = Acute toxicity in Albino mouse assessed as mortality at 2000 mg/kg, po after 2 to 4 hrs; type: organism-based; conditions: in vivo, time 2-4 hrs
[19] = Renal toxicity in Albino mouse assessed as structural absorbability abnormalities at 50 to 2000 mg/kg, po measured after 14 days; type: organism-based; conditions: in vivo, 336 h, dose 50-2000 mg/kg, time 14 day
[20] = Cytotoxicity against african green monkey Vero cells assessed as cell viability at 6.25 ug/ml by MTT assay; type: toxicity, cell-based; conditions: chlorocebus sabaeus, at 6.25 µg/mL, read-out: Activity
[21] = Acute toxicity in Albino mouse assessed as change in eosinophils at 50 to 2000 mg/kg, po measured after 14 days (reference value: 3%); type: organism-based; conditions: in vivo, 336 h, dose 50-2000 mg/kg, time 14 day
[22] = Acute toxicity in Albino mouse assessed as change in RBC count measured per million cells at 50 to 2000 mg/kg, po measured after 14 days (reference value: 9.15 microL); type: organism-based, Erythrocyte; conditions: in vivo, 336 h, dose 50-2000 mg/kg, time 14 day
[23] = Cytotoxicity against african green monkey Vero cells assessed as cell viability at 25 ug/ml by MTT assay; type: toxicity, cell-based; conditions: chlorocebus sabaeus, at 25 µg/mL, read-out: Activity
[24] = Renal toxicity in Albino mouse assessed as change in renal tubules at 50 to 2000 mg/kg, po measured after 14 days; type: organism-based; conditions: in vivo, 336 h, dose 50-2000 mg/kg, time 14 day
[25] = Cytotoxicity against african green monkey Vero cells assessed as cell viability at 12.5 ug/ml by MTT assay; type: toxicity, cell-based; conditions: chlorocebus sabaeus, at 12.5 µg/mL, read-out: Activity
[26] = Pulmonary toxicity in Albino mouse assessed as change in alveoli structure at 50 to 2000 mg/kg, po measured after 14 days; type: organism-based; conditions: in vivo, 336 h, dose 50-2000 mg/kg, time 14 day
[27] = Pulmonary toxicity in Albino mouse assessed as appearance of goblet cells at 50 to 2000 mg/kg, po measured after 14 days; type: organism-based; conditions: in vivo, 336 h, dose 50-2000 mg/kg, time 14 day
[28] = Hepatotoxicity in Albino mouse assessed as change in bile duct at 50 to 2000 mg/kg, po measured after 14 days; type: toxicity, organism-based, Liver; conditions: in vivo, 336 h, dose 50-2000 mg/kg, time 14 day
[29] = Acute toxicity in Albino mouse assessed as change in ESR at 50 to 2000 mg/kg, po measured after 14 days (reference value: 10 millimeter); type: organism-based; conditions: in vivo, 336 h, dose 50-2000 mg/kg, time 14 day
[30] = Renal toxicity in Albino mouse assessed as change in distal convoluted tubules at 50 to 2000 mg/kg, po measured after 14 days; type: organism-based; conditions: in vivo, 336 h, dose 50-2000 mg/kg, time 14 day
[31] = Acute toxicity in Albino mouse assessed as change in SGPT count at 50 to 2000 mg/kg, po measured after 14 days (reference value: 52 IU/L); type: organism-based; conditions: in vivo, 336 h, dose 50-2000 mg/kg, time 14 day
[32] = Renal toxicity in Albino mouse assessed as change in proximal convoluted tubules at 50 to 2000 mg/kg, po measured after 14 days; type: organism-based; conditions: in vivo, 336 h, dose 50-2000 mg/kg, time 14 day
[33] = Acute toxicity in Albino mouse assessed as change in SGOT count at 50 to 2000 mg/kg, po measured after 14 days (reference value: 42 IU/L); type: organism-based; conditions: in vivo, 336 h, dose 50-2000 mg/kg, time 14 day
[34] = Acute toxicity in Albino mouse assessed as change in LDH level at 50 to 2000 mg/kg, po measured after 14 days (reference value: 1052 IU/L); type: organism-based; conditions: in vivo, 336 h, dose 50-2000 mg/kg, time 14 day
[35] = Acute toxicity in Albino mouse assessed as mortality at 50 mg/kg, po after 14 days; type: organism-based; conditions: in vivo, 336 h, time 14 day
[36] = Hepatotoxicity in Albino mouse assessed as change in central vein at 50 to 2000 mg/kg, po measured after 14 days; type: toxicity, organism-based; conditions: in vivo, 336 h, dose 50-2000 mg/kg, time 14 day
[37] = Pulmonary toxicity in Albino mouse assessed as appearance of cilia at 50 to 2000 mg/kg, po measured after 14 days; type: organism-based; conditions: in vivo, 336 h, dose 50-2000 mg/kg, time 14 day
[38] = Hepatotoxicity in Albino mouse assessed as change in hepatocytes at 50 to 2000 mg/kg, po measured after 14 days; type: toxicity, organism-based; conditions: in vivo, 336 h, dose 50-2000 mg/kg, time 14 day
[39] = Acute toxicity in Albino mouse assessed as change in neutrophils at 50 to 2000 mg/kg, po measured after 14 days (reference value: 75%); type: organism-based; conditions: in vivo, 336 h, dose 50-2000 mg/kg, time 14 day
[40] = Renal toxicity in Albino mouse assessed as change in tubular capillaries at 50 to 2000 mg/kg, po measured after 14 days; type: organism-based; conditions: in vivo, 336 h, dose 50-2000 mg/kg, time 14 day
[41] = Pulmonary toxicity in Albino mouse assessed as change in alveolar sacs at 50 to 2000 mg/kg, po measured after 14 days; type: organism-based; conditions: in vivo, 336 h, dose 50-2000 mg/kg, time 14 day
[42] = Acute toxicity in Albino mouse assessed as change in monocytes at 50 to 2000 mg/kg, po measured after 14 days (reference value: 1%); type: organism-based; conditions: in vivo, 336 h, dose 50-2000 mg/kg, time 14 day
[43] = Renal toxicity in Albino mouse assessed as change in renal corpuscles at 50 to 2000 mg/kg, po measured after 14 days; type: organism-based; conditions: in vivo, 336 h, dose 50-2000 mg/kg, time 14 day
[44] = Pulmonary toxicity in Albino mouse assessed as change in bronchi structure at 50 to 2000 mg/kg, po measured after 14 days; type: organism-based; conditions: in vivo, 336 h, dose 50-2000 mg/kg, time 14 day
[45] = Renal toxicity in Albino mouse assessed as extravasation of RBC at 50 to 2000 mg/kg, po measured after 14 days; type: organism-based, Erythrocyte; conditions: in vivo, 336 h, dose 50-2000 mg/kg, time 14 day
[46] = Acute toxicity in Albino mouse assessed as change in platelet count at 50 to 2000 mg/kg, po measured after 14 days (reference value: 3.24 mm3); type: organism-based; parameters: unit not given here; conditions: in vivo, 336 h, dose 50-2000 mg/kg, time 14 day
[47] = Cytotoxicity against african green monkey Vero cells by MTT assay; type: toxicity, cell-based; conditions: chlorocebus sabaeus

NC1=C(Cl)C(=O)c2ccccc2C1=O
viability at 3.125 ug/ml [1]: 60%
Activity [2]: Non-Toxic
Activity [3]: Non-Toxic
Activity [4]: 0.9 mg/dL
Activity [5]: Non-Toxic
Activity [6]: 36%
Activity [7]: Toxic
Activity [8]: 40 IU/L
Activity [9]: Non-Toxic
Activity [10]: 13.6 g/dL
viability at 100 ug/ml [11]: 3.1%
Activity [12]: 68 mg/dL
Activity [13]: 3900 cells/mm3
Activity [14]: Non-Toxic
MIC [15]: 15.1 µM (≈ 3.12 µg/mL)
LD50 at 336 h [16]: 50 mg/kg
viability at 50 ug/ml [17]: 9.3%
Activity [18]: Toxic
Activity [19]: Non-Toxic
viability at 6.25 ug/ml [20]: 55%
Activity [21]: 5%
Activity [22]: 4.53 10^6 cells/µL
viability at 25 ug/ml [23]: 18%
Activity [24]: Non-Toxic
viability at 12.5 ug/ml [25]: 31%
Activity [26]: Non-Toxic
Activity [27]: Non-Toxic
Activity [28]: Non-Toxic
Activity [29]: 16 millimeter/hr
Activity [30]: Non-Toxic
Activity [31]: 26 IU/L
Activity [32]: Non-Toxic
Activity [33]: 34 IU/L
Activity [34]: 1519 IU/L
Activity [35]: Non-Toxic
Activity [36]: Non-Toxic
Activity [37]: Non-Toxic
Activity [38]: Non-Toxic
Activity [39]: 58%
Activity [40]: Non-Toxic
Activity [41]: Non-Toxic
Activity [42]: 1%
Activity [43]: Non-Toxic
Activity [44]: Non-Toxic
Activity [45]: Non-Toxic

O=C1C(Cl)=C(N2C(=O)C(Cl)C2c2ccc(Cl)cc2)C(=O)c2ccccc21 (configuration not stated)
viability at 3.125 ug/ml [1]: 100%
Activity [2]: Non-Toxic
Activity [3]: Non-Toxic
Activity [4]: 0.41 mg/dL
Activity [5]: Non-Toxic
Activity [6]: 44%
Activity [7]: Toxic
Activity [8]: 433.93 IU/L
Activity [9]: Non-Toxic
Activity [10]: 13.1 g/dL
Activity [46]: 6.1
viability at 100 ug/ml [11]: 8.6%
Activity [12]: 56.19 mg/dL
Activity [13]: 9400 mm3
Activity [14]: Non-Toxic
MIC [15]: 7.69 µM (≈ 3.13 µg/mL)
LD50 at 336 h [16]: 50 mg/kg
viability at 50 ug/ml [17]: 24.2%
Activity [18]: Toxic
Activity [19]: Non-Toxic
viability at 6.25 ug/ml [20]: 100%
Activity [21]: 4%
Activity [22]: 9.6
viability at 25 ug/ml [23]: 38%
Activity [24]: Non-Toxic
viability at 12.5 ug/ml [25]: 69.1%
Activity [26]: Non-Toxic
Activity [27]: Non-Toxic
Activity [47]: Dose-Dependent Effect
Activity [28]: Non-Toxic
Activity [29]: 14 millimeter/hr
Activity [30]: Non-Toxic
Activity [31]: 42.09 IU/L
Activity [32]: Non-Toxic
Activity [33]: 136.54 IU/L
Activity [34]: 134.22 IU/L
Activity [35]: Non-Toxic
Activity [36]: Non-Toxic
Activity [37]: Non-Toxic
Activity [38]: Non-Toxic
Activity [39]: 70%
Activity [40]: Non-Toxic
Activity [41]: Non-Toxic
Activity [42]: 1%
Activity [43]: Non-Toxic
Activity [44]: Non-Toxic
Activity [45]: Non-Toxic
